Source: ChEMBL document CHEMBL1201862, “PubChem BioAssay data set” (2004)
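Assay format: 96-well plates, 48-hour exposure. Here, GI50 denotes the concentration required for 50% inhibition of growth.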 Activity calls are given as the source filed them. Cut-off read from the data, not from the text of the source: active = GI50 up to about 1.1 µM and inactive = higher.

Tests used:
Test in all cases: inhibition of tumour cell growth, NCI panel, 48 h
K562 = tested on: K562
SK-OV-3 = tested on: SK-OV-3
SK-MEL-2 = tested on: SK-MEL-2
SR = tested on: SR
HOP-92 = tested on: HOP-92
CCRF-CEM = tested on: CCRF-CEM
HCT-116 = tested on: HCT-116
NCI-H23 = tested on: NCI-H23
NCI-H460 = tested on: NCI-H460
EKVX = tested on: EKVX
IGROV-1 = tested on: IGROV-1
RPMI-8226 = tested on: RPMI-8226
OVCAR-4 = tested on: OVCAR-4
A498 = tested on: A498
LOX IMVI = tested on: LOX IMVI
NCI-H522 = tested on: NCI-H522
SK-MEL-28 = tested on: SK-MEL-28
SW-620 = tested on: SW-620

SMILES | GI50 (K562) | GI50 (SK-OV-3) | GI50 (SK-MEL-2) | GI50 (SR) | GI50 (HOP-92) | GI50 (CCRF-CEM) | GI50 (HCT-116) | GI50 (NCI-H23) | GI50 (NCI-H460) | GI50 (EKVX) | GI50 (IGROV-1) | GI50 (RPMI-8226) | GI50 (OVCAR-4) | GI50 (A498) | GI50 (LOX IMVI) | GI50 (NCI-H522) | GI50 (SK-MEL-28) | GI50 (SW-620)
O=[N+]([O-])c1ccc2nc(/C(=N/Nc3ccccc3)C(O)c3ccc(Cl)cc3Cl)c(O)nc2c1 (centres undefined) | 30 µM (inactive) | > 100 µM (inactive) | > 100 µM (inactive) | 29.6 µM (inactive) | > 100 µM (inactive) | 22.3 µM (inactive) | > 100 µM (inactive) | > 100 µM (inactive) | > 100 µM (inactive) | > 100 µM (inactive) | > 100 µM (inactive) | 52.4 µM (inactive) | > 100 µM (inactive) | > 100 µM (inactive) | > 100 µM (inactive) | 15.9 µM (inactive) | – | –
CN(C)CCC(/C=C/c1ccccc1)=N\Nc1ccc(Cl)cc1 | 2.21 µM (inactive) | 3.99 µM (inactive) | 2 µM (inactive) | – | 2.18 µM (inactive) | 2.96 µM (inactive) | 3.51 µM (inactive) | 7.24 µM (inactive) | 2.1 µM (inactive) | 2.49 µM (inactive) | 2.64 µM (inactive) | 1.9 µM (inactive) | 5.21 µM (inactive) | 7.66 µM (inactive) | 1.59 µM (inactive) | 3.24 µM (inactive) | 12.8 µM (inactive) | 3.87 µM (inactive)
COC(=O)C(CCCN1C(=O)c2ccccc2C1=O)C(=O)OC | > 100 µM (inactive) | > 100 µM (inactive) | > 100 µM (inactive) | – | > 100 µM (inactive) | > 100 µM (inactive) | > 100 µM (inactive) | > 100 µM (inactive) | > 100 µM (inactive) | > 100 µM (inactive) | > 100 µM (inactive) | – | > 100 µM (inactive) | > 100 µM (inactive) | > 100 µM (inactive) | > 100 µM (inactive) | > 100 µM (inactive) | > 100 µM (inactive)
O=C1C(c2ccc([N+](=O)[O-])cc2)=[N+]([O-])c2ccccc21 | 26.5 µM (inactive) | 77.6 µM (inactive) | > 100 µM (inactive) | 23.7 µM (inactive) | 31 µM (inactive) | 22.9 µM (inactive) | 25.8 µM (inactive) | 23.3 µM (inactive) | 37 µM (inactive) | 32.8 µM (inactive) | 43.3 µM (inactive) | 19 µM (inactive) | 9.51 µM (inactive) | – | 21.1 µM (inactive) | 8.57 µM (inactive) | 29.3 µM (inactive) | 32.4 µM (inactive)
COc1ccccc1-n1c(N)c2c(C)c(-c3ccccc3)[nH]c2nc1=S | > 100 µM (inactive) | – | > 100 µM (inactive) | > 100 µM (inactive) | > 100 µM (inactive) | > 100 µM (inactive) | > 100 µM (inactive) | 79.4 µM (inactive) | > 100 µM (inactive) | – | – | 50.2 µM (inactive) | > 100 µM (inactive) | > 100 µM (inactive) | > 100 µM (inactive) | > 100 µM (inactive) | > 100 µM (inactive) | > 100 µM (inactive)
N#Cc1c2c(c(N=[N+]=[N-])n3c1nc1ccccc13)CCCC2 | 2.16 µM (inactive) | 1.8 µM (inactive) | 1.73 µM (inactive) | 2.1 µM (inactive) | – | – | 1.43 µM (inactive) | 2.55 µM (inactive) | 1.92 µM (inactive) | 16.9 µM (inactive) | 2.72 µM (inactive) | 1.71 µM (inactive) | 2.49 µM (inactive) | 2.65 µM (inactive) | 1.8 µM (inactive) | – | 4.12 µM (inactive) | 2.05 µM (inactive)
Cc1ccc(S(=O)(=O)OCC23CCC(CC2)C2CC23)cc1 (centres undefined) | 39.6 µM (inactive) | > 100 µM (inactive) | – | 30.2 µM (inactive) | 25.8 µM (inactive) | 39.7 µM (inactive) | 53.8 µM (inactive) | 38.3 µM (inactive) | 42.4 µM (inactive) | – | > 100 µM (inactive) | 25.9 µM (inactive) | 46 µM (inactive) | 43.3 µM (inactive) | 42.7 µM (inactive) | – | 96.6 µM (inactive) | 87.1 µM (inactive)
CCCCCCCCCCCCCC(=O)OC1C(CO)OC(=O)C1O (centres undefined) | 34.7 µM (inactive) | > 100 µM (inactive) | > 100 µM (inactive) | – | 26.7 µM (inactive) | 89.9 µM (inactive) | > 100 µM (inactive) | > 100 µM (inactive) | > 100 µM (inactive) | > 100 µM (inactive) | > 100 µM (inactive) | > 100 µM (inactive) | > 100 µM (inactive) | > 100 µM (inactive) | > 100 µM (inactive) | – | – | > 100 µM (inactive)
Cc1ccccc1NC(=O)c1cc2cc(/N=N/c3ccccc3C(=O)O)ccc2oc1=O | 23.6 µM (inactive) | 28.2 µM (inactive) | 22.8 µM (inactive) | – | – | 19.7 µM (inactive) | 20.7 µM (inactive) | 3.11 µM (inactive) | 21.1 µM (inactive) | 48.6 µM (inactive) | 25 µM (inactive) | 15.9 µM (inactive) | – | – | 16.4 µM (inactive) | 12.3 µM (inactive) | 13.5 µM (inactive) | 27.4 µM (inactive)
COc1cccc(NC(=O)/C(Cc2nc3ccccc3nc2C)=N/NC(=O)C[n+]2ccccc2)c1 | 71.9 µM (inactive) | > 100 µM (inactive) | > 100 µM (inactive) | > 100 µM (inactive) | – | 51.5 µM (inactive) | 67.1 µM (inactive) | > 100 µM (inactive) | 66.4 µM (inactive) | > 100 µM (inactive) | > 100 µM (inactive) | 26.5 µM (inactive) | > 100 µM (inactive) | > 100 µM (inactive) | > 100 µM (inactive) | – | > 100 µM (inactive) | 9.08 µM (inactive)
CCN(CC)C(=O)CC12CCCCC1=Nc1ccccc12 (centres undefined) | > 100 µM (inactive) | > 100 µM (inactive) | > 100 µM (inactive) | – | 51.6 µM (inactive) | > 100 µM (inactive) | > 100 µM (inactive) | > 100 µM (inactive) | > 100 µM (inactive) | > 100 µM (inactive) | > 100 µM (inactive) | > 100 µM (inactive) | > 100 µM (inactive) | > 100 µM (inactive) | > 100 µM (inactive) | – | > 100 µM (inactive) | > 100 µM (inactive)
CCc1cccc(C)c1NC(=O)CC1C(=O)Nc2ccccc2[S+]1[O-] (centres undefined) | 24.7 µM (inactive) | – | 43.5 µM (inactive) | 34 µM (inactive) | 53.7 µM (inactive) | – | 35.8 µM (inactive) | 31.3 µM (inactive) | 33.6 µM (inactive) | – | – | 33 µM (inactive) | 28.3 µM (inactive) | – | 44.5 µM (inactive) | 31.1 µM (inactive) | 73.1 µM (inactive) | 48.3 µM (inactive)
CCCCOC(=O)NC(=O)c1cn(C2CCCCC2)c(=O)[nH]c1=O | > 100 µM (inactive) | 20.9 µM (inactive) | 38 µM (inactive) | – | 14.3 µM (inactive) | > 100 µM (inactive) | 21.5 µM (inactive) | 33 µM (inactive) | > 100 µM (inactive) | > 100 µM (inactive) | 39.2 µM (inactive) | 60.8 µM (inactive) | 21.8 µM (inactive) | 17.1 µM (inactive) | 55.2 µM (inactive) | 26.9 µM (inactive) | 39.8 µM (inactive) | > 100 µM (inactive)
CC1=C(C(=O)CC(=O)C(=O)NC2C3CC4CC(C3)CC2C4)Sc2ccccc2N1 (centres undefined) | 84.3 µM (inactive) | > 31.6 µM (inactive) | > 100 µM (inactive) | – | 20.1 µM (inactive) | – | – | > 100 µM (inactive) | > 100 µM (inactive) | > 100 µM (inactive) | > 100 µM (inactive) | 74.6 µM (inactive) | > 100 µM (inactive) | > 100 µM (inactive) | > 100 µM (inactive) | 97.5 µM (inactive) | > 100 µM (inactive) | > 100 µM (inactive)
COC(=O)[C@H]1[C@H]2C[C@@H]3c4[nH]c5cc(OC)ccc5c4CCN3C[C@H]2C[C@@H](OC(=O)c2cc(OC)c(OC)c(OC)c2)[C@@H]1OC [RESERPINE] | 7.11 µM (inactive) | – | 19.3 µM (inactive) | 6.12 µM (inactive) | 10.8 µM (inactive) | 13.2 µM (inactive) | 13.7 µM (inactive) | 18.1 µM (inactive) | 18.9 µM (inactive) | – | 21.5 µM (inactive) | 6.9 µM (inactive) | 12.7 µM (inactive) | – | – | 17.9 µM (inactive) | > 10 µM (inactive) | 26.8 µM (inactive)
C/C(CC(=O)Nc1ccc(Cl)c(Cl)c1)=N/NC(=O)C[N+](C)(C)C | 46.1 µM (inactive) | – | > 100 µM (inactive) | 22.5 µM (inactive) | > 100 µM (inactive) | > 100 µM (inactive) | > 100 µM (inactive) | > 100 µM (inactive) | 65.2 µM (inactive) | > 100 µM (inactive) | > 100 µM (inactive) | 25.8 µM (inactive) | > 100 µM (inactive) | > 100 µM (inactive) | 18.1 µM (inactive) | – | 0.194 µM (active) | –
CNc1nnnn1C1OC(CO)C(O)C1O (centres undefined) | > 100 µM (inactive) | > 100 µM (inactive) | > 100 µM (inactive) | – | – | > 100 µM (inactive) | > 100 µM (inactive) | – | > 100 µM (inactive) | > 100 µM (inactive) | > 100 µM (inactive) | > 100 µM (inactive) | – | > 100 µM (inactive) | > 100 µM (inactive) | > 100 µM (inactive) | – | > 100 µM (inactive)
